# According to US8057829B2, “Methods for repelling insects using sesquiterpene hydrocarbons and their derivatives” (Sterling International Inc., priority 2008, dated 2011):
# How the values were obtained:
# [1] = system: female mosquito Culex pipiens antenna; experiment: GC-EAD antennal response, Culex pipiens; settings: female Culex pipiens antennae; about 100 ng of each compound; responses weak, but repeatable; FIGS. 7 and 8
# Description: The GC-EAD responses of the female mosquito Culex pipiens antenna were tested on a synthetic mixture of 1-octen-3-ol, and two sesquiterpene hydrocarbons, β-caryophyllene and isocaryophyllene, with about 100 ng of each compound in the mixture.
# The GC-EAD responses of the female mosquito Culex pipiens antenna were tested on a synthetic mixture of 1-octen-3-ol, and representative sesquiterpene hydrocarbons and derivatives including (+)-longipinene, (−)-isolongifolene, (+)-longifolene, β-caryophyllene, and isolongifolenone, with about 100 ng of each compound in the mixture.
# Antennal responses were weak, but repeatable, thus are considered to be true responses.
# The following procedures were employed to test the EAD response of an insect antenna to a repellent compound. The GC-EAD technique provides an efficient tool for screening behaviorally active repellents. Several synthetic mixtures of potential insect repellent candidates, mostly sesquiterpene hydrocarbons and derivatives, were analyzed in splitless mode using a Varian CP-3800 GC equipped with a polar column (Innowax; 1.0 μm film thickness, 30 m×0.53 mm ID; J & W Scientific), and a 1:1 effluent splitter that allowed simultaneous flame ionization detection (FID) and EAD of the separated volatile compounds. Helium was used as the carrier gas, and the injector temperature was 220° C. The column temperature was 50° C. for 2 min, rising to 240° C. at 10° C./min, then held for 10 min. The outlet for the EAD was held in a humidified air stream flowing at 0.5 liter/min. over an antennal preparation. A glass capillary indifferent electrode filled with Beadle-Ephrussi Ringer, and grounded via a silver wire, was inserted into the severed insect's head with the antennae. A similar recording electrode connected to a high-impedance DC amplifier with automatic baseline drift compensation was placed in contact with the distal end of one antenna (Zhang et al., Chemoecology, 10:69-80 (2000)). The antennal signals were stored and analyzed on a PC equipped with a serial IDAC interface box and the program EAD ver. 2.5 (Syntech, Hilversum, The Netherlands). The compound 1-octen-3-ol (known attractant for many flies and mosquitoes) was included in most of the synthetic mixtures, as a positive control. The results of the experiments are shown in FIGS. 1-10 and described above.
# Anopheles stephensi = experiment: K&D module behavioral bioassay (topical repellency, biting); type: in vivo
# How it was run: (§1)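 In vitro six-cell K&D module over 38 °C CPDA+ATP artificial blood under collagen membrane, topped by nylon organdy treated with five ethanol dilutions of test chemical (ethanol blank; DEET ca. 10 μg/cm^2 positive control). Five starved (24 h) 5–10 d-old females per cell. Biting counted over 3 min, three replicates per chemical and species.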
# Aedes aegypti = experiment: as above; type: in vivo
# How it was run: as §1
# [2] = system: female antennae of sand fly Phlebotomus papatasi and mosquitoes Aedes aegypti, Anopheles gambiae, Anopheles stephensi; experiment: GC-EAD responses of sand fly and three mosquitoes to synthetic mixtures; settings: about 100 ng of each compound, on one or more of the sand fly or the mosquitoes, FIGS. 9 and 10
# How it was run: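 Female antennae recorded by GC-EAD (split with FID) against synthetic mixtures with about 100 ng of each compound, 1-octen-3-ol as positive control; polar Innowax column, 50° C 2 min then 10° C/min to 240° C. Effluent in humidified air at 0.5 liter/min over severed-head preparation with Ringer-filled electrodes.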
# [3] = 10 μg/cm^2, DEET values are the positive control run with the chemical
Compound,GC-EAD antennal activity [1],% of biting (±SE) (N = 3) (Anopheles stephensi; [3]),% of biting (±SE) (N = 3) (Anopheles stephensi; 100 μg/cm^2),% of biting (±SE) (N = 3) (Anopheles stephensi; 500 μg/cm^2) [a %],% of biting (±SE) (N = 3) (Anopheles stephensi; 1000 μg/cm^2) [a %],% of biting (±SE) (N = 3) (Aedes aegypti; [3]),% of biting (±SE) (N = 3) (Aedes aegypti; 100 μg/cm^2),% of biting (±SE) (N = 3) (Aedes aegypti; 500 μg/cm^2) [a %],% of biting (±SE) (N = 3) (Aedes aegypti; 1000 μg/cm^2) [a %],GC-EAD antennal activity [2]
"C=C1C2CCC3[C@H]2C(C)(C)CCC[C@]13C (single isomer, unassigned; (+)) [(+)-Longifolene]",active,53 ± 7c %,33 ± 7bc %,0 ± 0,0 ± 0,53 ± 7c %,33 ± 13bc %,0 ± 0,0 ± 0,antennally active
"C=C1CC/C=C(/C)CC[C@@H]2[C@@H]1CC2(C)C [Isocaryophyllene, isocaryophyllene]",active,33 ± 13b %,7 ± 7a %,0 ± 0,0 ± 0,33 ± 7b %,0 ± 0a %,0 ± 0,0 ± 0,antennally active
"C=C1CC/C=C(\C)CC[C@@H]2[C@@H]1CC2(C)C [β-Caryophyllene, β-caryophyllene]",active,47 ± 18bc %,40 ± 12bc %,0 ± 0,7 ± 7,40 ± 12b %,33 ± 24b %,0 ± 0,0 ± 0,antennally active
